Source: patent US6787564B2, “Optically active clausenamides, process of the preparation thereof, pharmaceutical composition containing the same and their medical use” (Institute of Materia Medica, Chinese Academy of Medical …, priority 2002, dated 2004)

How the values were obtained:
weaning mice = test: synapses density in weaning mice; conditions: mouse, in vivo
animals [1] = test: nootropic action overall: step-down, step-through and water maze tests; assay type: in vivo; conditions: in vivo
Experimental: This invention used one trial avoidance task—step-down and step-through tests and water maze to compare the improving memorial effects of (±), (−) clausenamide.
(§1) The drugs were given orally once to animals before experiment in step-down and step-through tests. The water maze test lasted for 5 days in succession. The results were expressed as latency and errors number.
The effective dose of piracetam was 500 mg.kg^−1.

[2] = system: Bax α high expressing PC12 cells; test: 6-OHDA induced apoptosis of Bax α high expressing PC12 cells (TUNEL, flowcytometry); assay type: cell-based; conditions: 6-OHDA 100 μM, without drug 49.9%
Excerpt: 1. The Construction of pcDNA3-bax α Plasmid and its Transfection into the PC12 Cell Line
In order to increase the expression level of the transfected gene, we first cut some of the 3′ polyA signal sequences from the Bax α cDNA and constructed the intermediate plasmid pBluescript SK-Bax α (pA). Then cut the Bax α cDNA from the intermediate plasmid, religate with the eukaryotic expression plasmid pcDNA3 and obtained the pcDNA3-Bax α recombinant plasmid. […] The recombinated Bax α has −50 bp of 5′ untranslated region(5′-UTR), 576 bp of open reading frame (ORF), and 137 bp of 3′ untranslated region (3′-UTR). The 5′ methionine translation initiation region has the Kozak consensus sequences. So this plasmid may be used to transform the Bax α gene into the mammalian cells and guarantees highly expression of Bax α by using its strong promoter.
The Lipofectamine transfecting method was used to transfect the pcDNA3-Bax α into the PC12 cell line. G-418 was used to select the resistant cell clones. […] This experiment successfully produced the Bax α high expressing PC12 cell line.
Under normal condition, the Bax α high expressing cells had the same natural apoptosis rate with the neo transfected PC12 cells.

[3] = system: dentate gyrus granule cells; test: basal synaptic transmission / LTP in dentate gyrus of hippocampus in anesthetized rats (population spike amplitude); assay type: in vivo
Excerpt: Drugs or vehicle injection were delivered via cannula in the lateral cerebral ventricle at final concentration of 2×10^−6 mol/L. The population spike (PS) amplitude was employed as an indication of the level of excitation of the granular cell population in the dentate gyrus. To obtain this measurement, an evoked response was generated in the dentate gyrus granule cell layer by stimulating the pp at low freguency (0.033 Hz) with. single square wave pulses of 0.15 ms duration The LTP formation must accord the following creteria: The PS amplitude increased is over 30% and this high PS amplitude can persist for 40 min.

calcineurin = calcineurin activity in the cortical and hippocampal tissue; conditions: without HFS; Nimodipine 2 nmol; mean ± S.D., n = 5; control 7.8 ± 0.6
Excerpt: The rats were anaesthetized with urethane carbonate. The recording and stimulating electrodes were made from Teflon coated stainless steel wires. The bipolar stimulating electrode was sterotaxically placed in the entorhinal cortex to stimulate the perforant path, and the evoked potential was extracellular recorded from the dentate gyrus granule cell layer of ipsilateral. The population spike (PS) is served as an indication of granule cell's excitation. Long term potentiation (LTP) was induced by a 200 Hz high frequency stimulation 5×single square wave pulses of 0.2 ms duration. The drug or vehicle (DMSO) were injected into lateral cerebral ventricle in a 5 μl volume over a 5 min period via a Hamilton syringe.

mitochondrial complex I = mitochondrial complex I activity in Bax α high expressing PC12 cells; assay type: cell-based; conditions: without drug 1.44±0.16
Excerpt: (§2) Obviously, the increased mitochondrial membrane potential is considered to be one of the antiapoptotic mechanisms of (−) Clausenamide. The increased mitochondrial complex I and complex IV activity may account for the increased mitochondrial membrane potential. The Bax α protein may induce apoptosis by affecting enzyme activities of the mitochondrial electron transfer chain. And the mitochondrial complex I and complex IV could be the targeting points of the Bax α protein.

[4] = system: animals with anisodine-induced memory impairment; test: memory impairment induced by anisodine in water maze test; assay type: in vivo; conditions: anisodine + drug 10 mg/kg
Excerpt: as §1, with “This invention used one trial avoidance task—step-down and step-through tests and water maze to compare the improving memorial effects of (±), (−) clausenamide. The drugs” for “The drugs”

animals [5] = test: memory in water maze test; assay type: in vivo; conditions: 10 mg/kg
Excerpt: as §1, with “This invention used one trial avoidance task—step-down and step-through tests and water maze to compare the improving memorial effects of (±), (−) clausenamide. The drugs” for “The drugs”

A β 25-35 treated rats = test: Morris water maze, A β 25-35 induced impairment of memory; assay type: in vivo
Excerpt: Pathological features of Alzheimer's disease (AD) include extensive neuronal loss and the presence of numerous neurofibrillary tangles and senile plaques in the brain. The senile plaques contain amyloid fibrils derived from a 39-43 amino acids peptide referred to as β-amyloid or A β which can produce neurotoxicity. A β 25-35 poccesses the similar neurotoxicity and ability of self-aggregation as A β 1-42. Administrated aggregated A β 25-35 into rat's lateral cerebral ventricle induced memory impairment in Morris water maze.
With increasing of training days, the initial heading angle became small. On the 3th day, the initial heading angle of A β group was larger than control. […] (see Tab.3)
There are four strategies for finding platform in Morris water maze: random, circle, taxis and line. In the beginning of training the search strategies for finding target is mainly circle and random, with the increasing of training, the percentage of the two strategies declined gradually, Beginning from the 3th day, declining speed in control and (−) clausenamide group was faster than A β,(+) clausenamide and piracetam groups.

[6] = system: β-AP (25-35)-treated rats; test: one trial passive avoidance of β-AP (25-35)-treated rats; assay type: in vivo; conditions: n = 9
[7] = system: Bax α high expressing PC12 cells; test: mitochondrial membrane potential in 6-OHDA treated Bax α high expressing PC12 cells; assay type: cell-based; conditions: 6-OHDA 12 hours, without drug 24.6
Excerpt: as §2

CN1C(=O)[C@@H](O)[C@H](c2ccccc2)[C@@H]1[C@@H](O)c1ccccc1 [(−)clausenamide, 3S, 4R, 5R, 6S (−) Levoclausenamide]
synapses density in weaning mice (weaning mice): increased synapses density | nootropic action, times more potent than (±) clausenamide (animals [1]): 5-10 times | nootropic action, times more potent than piracetam (animals [1]): 50-100 times | apoptotic rate ([2]; 10^−5M): 9.5% | apoptotic rate ([2]; 10^−6M): 28.1% | apoptotic rate ([2]; 10^−7M): 36.23% | increase of PS amplitude in comparison with vehicle group ([3]; 30-60 min after drug administration): 38.9-63.4% | LTP formation (PS amplitude increase over 30% persisting 40 min) ([3]; (−) at 2×10^−6 mol/L, (±) up to 5 times that): induce LTP formation | PS % at 15′, in comparison with before drug ([3]; icv, 2×10^−6 mol/L): 19.8% | PS % at 15′, in comparison with control (vehicle) group ([3]; icv, 2×10^−6 mol/L): 10.0% | PS % at 30′, in comparison with before drug ([3]; icv, 2×10^−6 mol/L): 48.5% | PS % at 30′, in comparison with control (vehicle) group ([3]; icv, 2×10^−6 mol/L): 38.9% | PS % at 45′, in comparison with before drug ([3]; icv, 2×10^−6 mol/L): 66.3% | PS % at 45′, in comparison with control (vehicle) group ([3]; icv, 2×10^−6 mol/L): 52.7% | PS % at 60′, in comparison with before drug ([3]; icv, 2×10^−6 mol/L): 81.2% | PS % at 60′, in comparison with control (vehicle) group ([3]; icv, 2×10^−6 mol/L): 63.4% | PS amplitude 30′ after drug ([3]; icv, 2×10^−6 mol/L, control 108 ± 7): 150 ± 11 | PS amplitude 45′ after drug ([3]; icv, 2×10^−6 mol/L, control 110 ± 10): 168 ± 25 | PS amplitude 60′ after drug ([3]; icv, 2×10^−6 mol/L, control 112 ± 7): 183 ± 30 | PS amplitude 15′ after drug ([3]; icv, final concentration 2×10^−6 mol/L, control 110 ± 9): 121 ± 9 | calcineurin activity, Hippocampal tissue (calcineurin): 10.4 ± 0.5 (μmol Pi)/hr/μ g protein | mitochondrial complex I activity (mitochondrial complex I; 10^−5M): 2.16±0.2 umol/mg pro/min | mitochondrial complex I activity (mitochondrial complex I; 10^−7M): 1.57±0.12 umol/mg pro/min | Errors number [4]: 9.4 ± 5.9 | Lalencies reaching platform, 3rd day (animals [5]): 17.4 ± 10.9 s | Lalencies reaching platform, 4th day (animals [5]): 12.1 ± 6.9 s | Lalencies reaching platform, Second day (animals [5]): 28.7 ± 35.2 s | spatial learning and memory impairment induced by aggregated A β 25-35 (A β 25-35 treated rats; 8,40 mg·kg^−1 daily for 8 days from the 8th day after icv 15 nmol aggregated A β 25-35): significantly ameliorated | initial heading angle on the 3th day (in words) (A β 25-35 treated rats; (−),(+) clausenamide 8 and 40 mg.kg^−1, piracetam 400 mg·kg^−1, vs A β group): significantly reduced the angle | latency for finding the platform, 3th to 5th day (A β 25-35 treated rats; (−),(+) clausenamide 8 and 40 mg·kg^−1, piracetam 400 mg.kg^−1, vs A β group): shorter than that of A β group | initial heading angle, training day 1 (A β 25-35 treated rats; A β 25-35 + drug at 8 mg/kg): 89.7 ± 29.4 | initial heading angle, training day 2 (A β 25-35 treated rats; A β 25-35 + drug at 8 mg/kg): 72.3 ± 19.8 | initial heading angle, training day 3 (A β 25-35 treated rats; A β 25-35 + drug at 8 mg/kg): 46.5 ± 21.2 | initial heading angle, training day 4 (A β 25-35 treated rats; A β 25-35 + drug at 8 mg/kg): 30.4 ± 14.8 | initial heading angle, training day 5 (A β 25-35 treated rats; A β 25-35 + drug at 8 mg/kg): 17.6 ± 9.5 | initial heading angle, training day 1 (A β 25-35 treated rats; A β 25-35 + drug at 40 mg/kg): 101.5 ± 24.3 | initial heading angle, training day 2 (A β 25-35 treated rats; A β 25-35 + drug at 40 mg/kg): 83.5 ± 21.8 | initial heading angle, training day 3 (A β 25-35 treated rats; A β 25-35 + drug at 40 mg/kg): 51.2 ± 18.7 | initial heading angle, training day 4 (A β 25-35 treated rats; A β 25-35 + drug at 40 mg/kg): 28.4 ± 13.2 | initial heading angle, training day 5 (A β 25-35 treated rats; A β 25-35 + drug at 40 mg/kg): 20.7 ± 8.7 | appearance of taxis and line search strategies (A β 25-35 treated rats; from the 3th training day): increased markedly | Number of error, Acquisition ([6]; β-AP-treated + drug 8 mg/kg): 0.7 ± 0.24 | Number of error, Training ([6]; β-AP-treated + drug 8 mg/kg): 3.1 ± 1.22 | Number of error, Acquisition ([6]; β-AP-treated + drug 40 mg/kg): 1.1 ± 0.27 | Number of error, Training ([6]; β-AP-treated + drug 40 mg/kg): 4.4 ± 0.87 | mitochondrial membrane potential ([7]; 10^−6M): 56.0±5.0 | mitochondrial membrane potential ([7]; 10^−7M): 30.7±3.3
